Data from paper PMC9532703, “A novel small molecule RK-019 inhibits FGFR2-amplification gastric cancer cell proliferation and induces apoptosis in vitro and in vivo” (Frontiers in Pharmacology, 2022).

Experiments:
Test in all cases: Kinase selectivity panel
Assay type in all cases: biochemical
PKCε(h) = molecular target: T1, PKCε(h) (Homo sapiens, UniProt Q02156); settings: read-out: Inhibition(%) @ 1 µM RK-019
T1 construct: purchased Eurofins Discovery Services (KinaseProfiler)
Procedure, shortened: (§1)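 Recombinant human kinase incubated with 1 µM compound; ATP-site competition binding quantified in vitro as inhibition ratio.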

PKR(h) = molecular target: T2, PKR(h) (Homo sapiens, UniProt P19525); settings: read-out: Inhibition(%) @ 1 µM RK-019
T2 construct: purchased Eurofins Discovery Services (KinaseProfiler)
Procedure, shortened: as §1

CK1ε(h) = molecular target: T3, CK1ε(h) (Homo sapiens, UniProt P49674); settings: read-out: Inhibition(%) @ 1 µM RK-019
T3 construct: purchased Eurofins Discovery Services (KinaseProfiler)
Procedure, shortened: as §1

CHK2(I157T)(h) = molecular target: T4, CHK2(I157T)(h) (Homo sapiens, UniProt O96017, I157T); settings: read-out: Inhibition(%) @ 1 µM RK-019
T4 construct: purchased Eurofins Discovery Services (KinaseProfiler)
T4 sequence (O96017 whole entry I157T): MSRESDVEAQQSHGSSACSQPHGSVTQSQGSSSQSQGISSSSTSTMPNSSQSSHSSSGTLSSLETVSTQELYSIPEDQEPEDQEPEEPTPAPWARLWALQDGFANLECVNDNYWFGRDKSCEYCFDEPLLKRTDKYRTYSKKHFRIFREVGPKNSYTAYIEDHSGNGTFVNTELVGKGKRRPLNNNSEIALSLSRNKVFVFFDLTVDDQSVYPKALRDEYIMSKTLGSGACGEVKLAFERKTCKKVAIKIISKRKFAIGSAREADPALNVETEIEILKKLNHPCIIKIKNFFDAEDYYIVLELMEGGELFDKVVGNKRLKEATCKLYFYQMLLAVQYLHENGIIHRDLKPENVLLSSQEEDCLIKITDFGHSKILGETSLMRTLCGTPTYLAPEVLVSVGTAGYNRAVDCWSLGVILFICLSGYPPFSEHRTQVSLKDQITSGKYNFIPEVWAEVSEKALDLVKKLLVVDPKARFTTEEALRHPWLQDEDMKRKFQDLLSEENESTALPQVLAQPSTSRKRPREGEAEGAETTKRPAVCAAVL
Procedure, shortened: as §1

IRAK4(h) = molecular target: T5, IRAK4(h) (Homo sapiens, UniProt Q9NWZ3); settings: read-out: Inhibition(%) @ 1 µM RK-019
T5 construct: purchased Eurofins Discovery Services (KinaseProfiler)
T5 sequence (Q9NWZ3 whole entry): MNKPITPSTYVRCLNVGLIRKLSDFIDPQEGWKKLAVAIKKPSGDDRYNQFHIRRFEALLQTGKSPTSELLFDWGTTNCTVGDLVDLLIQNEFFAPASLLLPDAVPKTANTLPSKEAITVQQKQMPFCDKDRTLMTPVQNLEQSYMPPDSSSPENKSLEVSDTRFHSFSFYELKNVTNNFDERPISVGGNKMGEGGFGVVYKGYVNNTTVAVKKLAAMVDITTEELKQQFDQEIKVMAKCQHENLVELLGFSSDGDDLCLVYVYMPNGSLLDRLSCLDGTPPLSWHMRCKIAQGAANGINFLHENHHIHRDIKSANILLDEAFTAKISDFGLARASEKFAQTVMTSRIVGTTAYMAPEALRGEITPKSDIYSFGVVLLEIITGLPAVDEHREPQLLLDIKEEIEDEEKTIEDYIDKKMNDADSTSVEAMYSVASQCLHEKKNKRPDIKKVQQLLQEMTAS
Procedure, shortened: as §1

CLK4(h) = molecular target: T6, CLK4(h) (Homo sapiens, UniProt Q9HAZ1); settings: read-out: Inhibition(%) @ 1 µM RK-019
T6 construct: purchased Eurofins Discovery Services (KinaseProfiler)
Procedure, shortened: as §1

MKK6(h) = molecular target: T7, MKK6(h) (Homo sapiens, UniProt P52564); settings: read-out: Inhibition(%) @ 1 µM RK-019
T7 construct: purchased Eurofins Discovery Services (KinaseProfiler)
Procedure, shortened: as §1

RIPK1(h) = molecular target: T8, RIPK1(h) (Homo sapiens, UniProt Q13546); settings: read-out: Inhibition(%) @ 1 µM RK-019
T8 construct: purchased Eurofins Discovery Services (KinaseProfiler)
T8 sequence (Q13546 whole entry): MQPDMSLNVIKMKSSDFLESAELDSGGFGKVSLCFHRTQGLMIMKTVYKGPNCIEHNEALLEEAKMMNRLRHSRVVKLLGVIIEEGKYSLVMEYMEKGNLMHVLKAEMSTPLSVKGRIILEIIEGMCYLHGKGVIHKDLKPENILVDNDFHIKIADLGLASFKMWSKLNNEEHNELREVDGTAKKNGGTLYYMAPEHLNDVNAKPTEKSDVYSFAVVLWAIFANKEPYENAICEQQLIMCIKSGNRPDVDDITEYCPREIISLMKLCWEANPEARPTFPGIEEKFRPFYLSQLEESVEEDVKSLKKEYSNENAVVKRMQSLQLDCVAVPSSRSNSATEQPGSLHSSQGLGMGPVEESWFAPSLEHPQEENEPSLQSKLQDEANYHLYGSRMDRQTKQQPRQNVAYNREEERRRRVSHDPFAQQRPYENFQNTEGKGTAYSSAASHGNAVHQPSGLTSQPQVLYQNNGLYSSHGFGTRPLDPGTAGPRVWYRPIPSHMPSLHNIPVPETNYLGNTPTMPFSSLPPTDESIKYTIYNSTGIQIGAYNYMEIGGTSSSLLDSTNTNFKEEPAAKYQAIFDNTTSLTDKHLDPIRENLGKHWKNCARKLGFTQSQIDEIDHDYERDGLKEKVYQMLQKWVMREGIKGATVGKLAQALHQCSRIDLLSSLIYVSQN
Procedure, shortened: as §1

FAK(h) = molecular target: T9, FAK(h) (Homo sapiens, UniProt Q05397); settings: read-out: Inhibition(%) @ 1 µM RK-019
T9 construct: purchased Eurofins Discovery Services (KinaseProfiler)
Procedure, shortened: as §1

SLK(h) = molecular target: T10, SLK(h) (Homo sapiens, UniProt Q9H2G2); settings: read-out: Inhibition(%) @ 1 µM RK-019
T10 construct: purchased Eurofins Discovery Services (KinaseProfiler)
Procedure, shortened: as §1

TLK2(h) = molecular target: T11, TLK2(h) (Homo sapiens, UniProt Q86UE8); settings: read-out: Inhibition(%) @ 1 µM RK-019
T11 construct: purchased Eurofins Discovery Services (KinaseProfiler)
Procedure, shortened: as §1

DAPK2(h) = molecular target: T12, DAPK2(h) (Homo sapiens, UniProt Q9UIK4); settings: read-out: Inhibition(%) @ 1 µM RK-019
T12 construct: purchased Eurofins Discovery Services (KinaseProfiler)
Procedure, shortened: as §1

PIP5K1g(h) = molecular target: T13, PIP5K1g(h) (Homo sapiens, UniProt O60331); settings: read-out: Inhibition(%) @ 1 µM RK-019
T13 construct: purchased Eurofins Discovery Services (KinaseProfiler)
Procedure, shortened: as §1

DNA-PK(h) = molecular target: T14, DNA-PK(h) (Homo sapiens, UniProt P78527); settings: read-out: Inhibition(%) @ 1 µM RK-019
T14 construct: purchased Eurofins Discovery Services (KinaseProfiler)
Procedure, shortened: as §1

Hck(h) activated = molecular target: T15, Hck(h) activated (Homo sapiens, UniProt P08631); settings: read-out: Inhibition(%) @ 1 µM RK-019
T15 construct: purchased Eurofins Discovery Services (KinaseProfiler)
Procedure, shortened: as §1

TrkA(h) = molecular target: T16, TrkA(h) (Homo sapiens, UniProt P04629); settings: read-out: Inhibition(%) @ 1 µM RK-019
T16 construct: purchased Eurofins Discovery Services (KinaseProfiler)
Procedure, shortened: as §1

JNK2α2(h) = molecular target: T17, JNK2α2(h) (Homo sapiens, UniProt P45984); settings: read-out: Inhibition(%) @ 1 µM RK-019
T17 construct: purchased Eurofins Discovery Services (KinaseProfiler)
Procedure, shortened: as §1

Rsk2(h) = molecular target: T18, Rsk2(h) (Homo sapiens, UniProt P51812); settings: read-out: Inhibition(%) @ 1 µM RK-019
T18 construct: purchased Eurofins Discovery Services (KinaseProfiler)
Procedure, shortened: as §1

PTK5(h) = molecular target: T19, PTK5(h) (Homo sapiens, UniProt P42685); settings: read-out: Inhibition(%) @ 1 µM RK-019
T19 construct: purchased Eurofins Discovery Services (KinaseProfiler)
Procedure, shortened: as §1

TAO3(h) = molecular target: T20, TAO3(h) (Homo sapiens, UniProt Q9H2K8); settings: read-out: Inhibition(%) @ 1 µM RK-019
T20 construct: purchased Eurofins Discovery Services (KinaseProfiler)
Procedure, shortened: as §1

B-Raf(V599E)(h) = molecular target: T21, B-Raf(V599E)(h) (Homo sapiens, UniProt P15056, V600E); settings: read-out: Inhibition(%) @ 1 µM RK-019
T21 construct: purchased Eurofins Discovery Services (KinaseProfiler)
Procedure, shortened: as §1

JNK1α1(h) = molecular target: T22, JNK1α1(h) (Homo sapiens, UniProt P45983); settings: read-out: Inhibition(%) @ 1 µM RK-019
T22 construct: purchased Eurofins Discovery Services (KinaseProfiler)
Procedure, shortened: as §1

SIK2(h) = molecular target: T23, SIK2(h) (Homo sapiens, UniProt Q9H0K1); settings: read-out: Inhibition(%) @ 1 µM RK-019
T23 construct: purchased Eurofins Discovery Services (KinaseProfiler)
Procedure, shortened: as §1

CHK1(h) = molecular target: T24, CHK1(h) (Homo sapiens, UniProt O14757); settings: read-out: Inhibition(%) @ 1 µM RK-019
T24 construct: purchased Eurofins Discovery Services (KinaseProfiler)
Procedure, shortened: as §1

NEK1(h) = molecular target: T25, NEK1(h) (Homo sapiens, UniProt Q96PY6); settings: read-out: Inhibition(%) @ 1 µM RK-019
T25 construct: purchased Eurofins Discovery Services (KinaseProfiler)
T25 sequence (Q96PY6 whole entry): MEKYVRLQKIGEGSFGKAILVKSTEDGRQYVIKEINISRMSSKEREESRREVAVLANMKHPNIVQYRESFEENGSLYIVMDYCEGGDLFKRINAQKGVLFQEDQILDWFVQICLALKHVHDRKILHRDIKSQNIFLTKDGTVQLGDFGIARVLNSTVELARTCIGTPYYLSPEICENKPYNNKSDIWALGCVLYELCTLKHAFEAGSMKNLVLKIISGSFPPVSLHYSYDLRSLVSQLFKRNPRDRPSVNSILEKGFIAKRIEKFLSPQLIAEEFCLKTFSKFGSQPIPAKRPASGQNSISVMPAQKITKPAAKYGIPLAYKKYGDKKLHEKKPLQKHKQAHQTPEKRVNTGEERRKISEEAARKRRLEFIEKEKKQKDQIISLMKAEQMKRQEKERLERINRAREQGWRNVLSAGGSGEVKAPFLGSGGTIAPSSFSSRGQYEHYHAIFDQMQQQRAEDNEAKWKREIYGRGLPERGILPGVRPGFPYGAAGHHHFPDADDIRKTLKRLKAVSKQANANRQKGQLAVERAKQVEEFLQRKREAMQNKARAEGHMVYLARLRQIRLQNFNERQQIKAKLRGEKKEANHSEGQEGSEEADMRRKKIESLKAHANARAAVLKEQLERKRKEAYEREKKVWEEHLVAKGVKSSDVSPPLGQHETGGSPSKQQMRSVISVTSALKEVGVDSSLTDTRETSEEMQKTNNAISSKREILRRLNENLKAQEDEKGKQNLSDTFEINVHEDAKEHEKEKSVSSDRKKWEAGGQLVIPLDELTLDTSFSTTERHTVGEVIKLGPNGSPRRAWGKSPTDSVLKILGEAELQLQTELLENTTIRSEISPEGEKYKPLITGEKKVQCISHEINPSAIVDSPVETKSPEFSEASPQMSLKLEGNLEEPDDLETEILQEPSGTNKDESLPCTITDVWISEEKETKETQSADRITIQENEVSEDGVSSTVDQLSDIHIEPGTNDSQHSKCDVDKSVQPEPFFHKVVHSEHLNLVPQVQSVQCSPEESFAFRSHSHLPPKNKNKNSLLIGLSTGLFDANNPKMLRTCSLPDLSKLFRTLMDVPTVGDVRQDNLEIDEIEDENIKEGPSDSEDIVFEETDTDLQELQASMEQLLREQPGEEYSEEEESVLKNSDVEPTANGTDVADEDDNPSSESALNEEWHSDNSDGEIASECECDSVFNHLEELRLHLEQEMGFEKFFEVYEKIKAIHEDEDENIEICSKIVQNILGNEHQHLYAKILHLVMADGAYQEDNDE
Procedure, shortened: as §1

Flt4(h) = molecular target: T26, Flt4(h) (Homo sapiens, UniProt P35916)
T26 construct: purchased Eurofins Discovery Services (KinaseProfiler)
T26 sequence (P35916 25-1363): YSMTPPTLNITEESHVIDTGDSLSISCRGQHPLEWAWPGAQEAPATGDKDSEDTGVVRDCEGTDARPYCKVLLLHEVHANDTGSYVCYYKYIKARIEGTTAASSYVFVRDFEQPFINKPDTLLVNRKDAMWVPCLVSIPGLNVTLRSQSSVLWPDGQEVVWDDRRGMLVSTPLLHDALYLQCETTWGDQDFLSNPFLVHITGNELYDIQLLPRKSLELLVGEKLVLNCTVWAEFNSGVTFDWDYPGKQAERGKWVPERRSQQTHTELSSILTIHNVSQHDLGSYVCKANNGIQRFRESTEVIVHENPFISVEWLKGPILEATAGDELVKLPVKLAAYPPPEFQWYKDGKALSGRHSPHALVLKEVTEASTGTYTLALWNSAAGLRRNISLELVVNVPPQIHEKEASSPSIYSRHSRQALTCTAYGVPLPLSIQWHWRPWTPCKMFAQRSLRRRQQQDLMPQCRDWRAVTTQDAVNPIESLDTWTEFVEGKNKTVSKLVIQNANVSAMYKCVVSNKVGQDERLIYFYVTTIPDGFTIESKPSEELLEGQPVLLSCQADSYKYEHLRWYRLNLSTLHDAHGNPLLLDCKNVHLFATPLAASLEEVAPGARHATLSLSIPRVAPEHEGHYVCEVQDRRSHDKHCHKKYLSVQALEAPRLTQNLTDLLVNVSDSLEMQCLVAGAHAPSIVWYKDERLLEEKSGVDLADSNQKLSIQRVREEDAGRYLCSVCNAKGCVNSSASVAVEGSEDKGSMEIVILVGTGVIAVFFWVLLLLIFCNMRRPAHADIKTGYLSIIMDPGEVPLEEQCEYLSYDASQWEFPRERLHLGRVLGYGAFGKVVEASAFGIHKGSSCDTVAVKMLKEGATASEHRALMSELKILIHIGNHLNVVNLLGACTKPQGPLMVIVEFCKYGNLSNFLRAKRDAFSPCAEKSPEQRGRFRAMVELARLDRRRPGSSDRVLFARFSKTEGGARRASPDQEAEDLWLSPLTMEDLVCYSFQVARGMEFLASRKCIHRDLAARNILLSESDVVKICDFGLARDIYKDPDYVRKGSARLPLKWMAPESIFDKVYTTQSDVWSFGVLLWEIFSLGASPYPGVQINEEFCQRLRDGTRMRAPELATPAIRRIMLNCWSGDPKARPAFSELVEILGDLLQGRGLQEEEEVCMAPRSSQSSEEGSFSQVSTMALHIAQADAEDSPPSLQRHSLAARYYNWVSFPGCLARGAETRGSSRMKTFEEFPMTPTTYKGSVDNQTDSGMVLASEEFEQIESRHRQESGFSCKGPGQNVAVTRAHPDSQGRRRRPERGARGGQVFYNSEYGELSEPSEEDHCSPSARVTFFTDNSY
Procedure, shortened: as §1

SAPK2a(h) = molecular target: T27, SAPK2a(h) (Homo sapiens, UniProt Q16539); settings: read-out: Inhibition(%) @ 1 µM RK-019
T27 construct: purchased Eurofins Discovery Services (KinaseProfiler)
Procedure, shortened: as §1

BrSK1(h) = molecular target: T28, BrSK1(h) (Homo sapiens, UniProt Q8TDC3); settings: read-out: Inhibition(%) @ 1 µM RK-019
T28 construct: purchased Eurofins Discovery Services (KinaseProfiler)
T28 sequence (Q8TDC3 whole entry): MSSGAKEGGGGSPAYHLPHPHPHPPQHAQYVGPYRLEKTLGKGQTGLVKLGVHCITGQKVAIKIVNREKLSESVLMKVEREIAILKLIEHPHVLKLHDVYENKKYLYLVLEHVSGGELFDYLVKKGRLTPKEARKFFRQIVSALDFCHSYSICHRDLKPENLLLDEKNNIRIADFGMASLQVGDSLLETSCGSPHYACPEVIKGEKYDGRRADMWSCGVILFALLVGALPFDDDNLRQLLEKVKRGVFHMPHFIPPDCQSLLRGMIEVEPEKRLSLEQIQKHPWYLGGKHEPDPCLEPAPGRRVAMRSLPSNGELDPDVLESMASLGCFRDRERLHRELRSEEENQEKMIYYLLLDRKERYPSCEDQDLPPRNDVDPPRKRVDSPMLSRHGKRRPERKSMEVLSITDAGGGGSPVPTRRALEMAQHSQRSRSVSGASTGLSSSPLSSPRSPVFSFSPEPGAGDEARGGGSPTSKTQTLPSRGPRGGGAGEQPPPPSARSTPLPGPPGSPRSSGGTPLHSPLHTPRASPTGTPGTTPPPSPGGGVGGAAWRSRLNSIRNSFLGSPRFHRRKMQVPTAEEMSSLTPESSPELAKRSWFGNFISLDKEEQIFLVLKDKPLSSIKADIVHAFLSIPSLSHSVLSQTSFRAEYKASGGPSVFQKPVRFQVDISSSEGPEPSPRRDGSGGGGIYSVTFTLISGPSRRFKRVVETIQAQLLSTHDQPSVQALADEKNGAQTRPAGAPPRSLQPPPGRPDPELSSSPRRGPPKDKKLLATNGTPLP
Procedure, shortened: as §1

[1] = molecular target: T29, PI3 Kinase (p110b/p85a)(h) (Homo sapiens, UniProt P42338); settings: read-out: Inhibition(%) @ 1 µM RK-019
T29 construct: purchased Eurofins Discovery Services (KinaseProfiler)
Procedure, shortened: as §1

NEK7(h) = molecular target: T30, NEK7(h) (Homo sapiens, UniProt Q8TDX7); settings: read-out: Inhibition(%) @ 1 µM RK-019
T30 construct: purchased Eurofins Discovery Services (KinaseProfiler)
Procedure, shortened: as §1

PKCβII(h) = molecular target: T31, PKCβII(h) (Homo sapiens, UniProt P05771); settings: read-out: Inhibition(%) @ 1 µM RK-019
T31 construct: purchased Eurofins Discovery Services (KinaseProfiler)
Procedure, shortened: as §1

CDK16/cyclinY(h) = molecular target: T32, CDK16/cyclinY(h) (Homo sapiens, UniProt Q00536); settings: read-out: Inhibition(%) @ 1 µM RK-019
T32 construct: purchased Eurofins Discovery Services (KinaseProfiler)
Procedure, shortened: as §1

Plk3(h) = molecular target: T33, Plk3(h) (Homo sapiens, UniProt Q9H4B4); settings: read-out: Inhibition(%) @ 1 µM RK-019
T33 construct: purchased Eurofins Discovery Services (KinaseProfiler)
Procedure, shortened: as §1

GCK(h) = molecular target: T34, GCK(h) (Homo sapiens, UniProt Q12851); settings: read-out: Inhibition(%) @ 1 µM RK-019
T34 construct: purchased Eurofins Discovery Services (KinaseProfiler)
Procedure, shortened: as §1

PhKγ1(h) = molecular target: T35, PhKγ1(h) (Homo sapiens, UniProt Q16816); settings: read-out: Inhibition(%) @ 1 µM RK-019
T35 construct: purchased Eurofins Discovery Services (KinaseProfiler)
Procedure, shortened: as §1

PrKX(h) = molecular target: T36, PrKX(h) (Homo sapiens, UniProt P51817); settings: read-out: Inhibition(%) @ 1 µM RK-019
T36 construct: purchased Eurofins Discovery Services (KinaseProfiler)
Procedure, shortened: as §1

EphB3(h) = molecular target: T37, EphB3(h) (Homo sapiens, UniProt P54753); settings: read-out: Inhibition(%) @ 1 µM RK-019
T37 construct: purchased Eurofins Discovery Services (KinaseProfiler)
Procedure, shortened: as §1

COc1cc(OC)cc(N(CCN[C@H](C)CO)c2ccc3ncc(-c4cnn(C)c4)c(=O)n3c2)c1 [RK-019, (R)-7-((3,5-dimethoxyphenyl) (2-((1-hydroxypropan-2-yl)amino)ethyl)amino)-3-(1-methyl-1H-pyrazol-4-yl)-4H-pyrido [1,2-a]pyrimidin-4-one]
activity at 1 µM (PKCε(h)): 88% | activity at 1 µM (PKR(h)): 50% | activity at 1 µM (CK1ε(h)): 99% | activity at 1 µM (CHK2(I157T)(h)): 100% | activity at 1 µM (IRAK4(h)): 100% | activity at 1 µM (CLK4(h)): 89% | activity at 1 µM (MKK6(h)): 83% | activity at 1 µM (RIPK1(h)): 85% | activity at 1 µM (FAK(h)): 105% | activity at 1 µM (SLK(h)): 99% | activity at 1 µM (TLK2(h)): 124% | activity at 1 µM (DAPK2(h)): 97% | activity at 1 µM (PIP5K1g(h)): 97% | activity at 1 µM (DNA-PK(h)): 101% | activity at 1 µM (Hck(h) activated): 60% | activity at 1 µM (TrkA(h)): 92% | activity at 1 µM (JNK2α2(h)): 99% | activity at 1 µM (Rsk2(h)): 149% | activity at 1 µM (PTK5(h)): 107% | activity at 1 µM (TAO3(h)): 100% | activity at 1 µM (B-Raf(V599E)(h)): 70% | activity at 1 µM (JNK1α1(h)): 96% | activity at 1 µM (SIK2(h)): 99% | activity at 1 µM (CHK1(h)): 90% | activity at 1 µM (NEK1(h)): 52% | inhibition at 1 µM (Flt4(h); FLT4, 1 µM, read-out: inhibition (hit in panel)): > 90% | activity at 1 µM (Flt4(h); Flt4(h), read-out: Inhibition(%) @ 1 µM RK-019): 3% | activity at 1 µM (SAPK2a(h)): 100% | activity at 1 µM (BrSK1(h)): 106% | activity at 1 µM [1]: 100% | activity at 1 µM (NEK7(h)): 99% | activity at 1 µM (PKCβII(h)): 111% | activity at 1 µM (CDK16/cyclinY(h)): 108% | activity at 1 µM (Plk3(h)): 101% | activity at 1 µM (GCK(h)): 98% | activity at 1 µM (PhKγ1(h)): 93% | activity at 1 µM (PrKX(h)): 98% | activity at 1 µM (EphB3(h)): 89%
